# Measured values published in patent publication US12153049B2, “BCR-ABL variants” (Quest Diagnostics Investments LLC, priority 2008, dated 2024).
# Where “and” joins values, the source holds several entries; their conditions need not be identical. Identical values can stand only once. Entries after “also recorded” stand apart in the source; their conditions may differ. Counter-ions that a name gives are not always drawn. Like-named read-outs stand apart in the source and are kept apart here.
# Legend:
# [1] = system: CML patients; settings: cited from earlier work
# [2] = system: K562 cells transfected with pMIG/BCR-ABL1p210; assay: MTT cell proliferation assay, K562 cells transfected with pMIG/BCR-ABL1p210; type: cell-based, human; settings: for Resistance to the drug caused by wild-type BCR-ABL1p210 expression: K562 cells transfected with BCR-ABL1p210; for IC50: pMIG/BCR-ABL1p210 0.1 μg DNA, K562 cells, drug 48 h, read-out: IC50 (median-effect dose, MTT)
# Experimental: (§1) K562 cells were cotransfected with an increasing amount (0 to 100 ng) of plasmid pMIG/35 INS BCR-ABL and 100 ng of either pMIG/BCR-ABL1p210 or empty plasmid (pMIG). […] The effect of the drugs on cell proliferation was measured by MTT assay (FIG. 18A, right panel; mean±S.D; n=3). Dose response to cell death curves of K562 cells exposed to drugs were generated with the CalcuSyn® software package (Biosoft, Ferguson, MO) for each of at least three experiments.
# [3] = system: caspase-3 activation in K562 cells; assay: Caspase-3 activation (apoptosis) assay in transfected K562 cells; type: cell-based, human; settings: for Effect of 35 INS BCR-ABL gene transfer on drug-induced caspase-3 activation: K562 cells transfected with 35 INS BCR-ABL
# Experimental: To perform caspase assays, K562 cells were transiently transfected in 6-well dishes using the above procedure. […] Typically, 15-25 μg of lysates were analyzed for protease activity by continuously measuring the release of fluorogenic substrate Ac-DEVD-aminofluoromethylcoumarin product from EMD (San Diego, CA) at 37° C., as described (Capdeville et al., Nat. Rev. Drug Discov. 2002, 1:493).
# Induction of apoptosis measured by caspase-3 activation (mean [SD]; n=3) in K562 cells transfected with the different plasmids as described above and shown in FIG. 18B.
# (§2) Lysates were prepared at the times indicated and examined by caspase-3 assay (left) or by immunoblots using specific antibodies for BIM and actin (right) (see FIGS. 22A-22B).
# [4] = system: BIM expression in K562 cells; assay: BIM induction by immunoblot in K562 cells; type: cell-based, human; settings: 24 to 48 hours' incubation
# Experimental: as §2
# [5] = system: K562 CML cells (empty vector); assay: MTT cell proliferation assay, K562 cells with empty vector; type: cell-based, human; settings: for IC50: Empty vector pCMV/GFP, drug 48 h, read-out: IC50 (median-effect dose, MTT)
# Experimental: The effect of the drugs on cell proliferation was measured by MTT assay (FIG. 18A, right panel; mean±S.D; n=3). Dose response to cell death curves of K562 cells exposed to drugs were generated with the CalcuSyn® software package (Biosoft, Ferguson, MO) for each of at least three experiments.
# [6] = system: tyrosine kinase (TK) activity in K562 cells transfected with BCR-ABL1p210; assay: Universal Tyrosine Kinase Assay on cell extract, K562 BCR-ABL1p210; type: cell-based, human; settings: relative to no-drug control, imatinib 1.2 μM, nilotinib 5 nM, dasatinib 5 nM, MK 0457 2 μM, homoharringtonine X μM
# Experimental: (§3) K562 cells were cotransfected with increasing amounts of plasmid encoding pMIG/35 INS bcr-abl and either 100 ng of pMIG/BCR-ABL1p210 or the same amount of control vector (empty vector plasmid). […] Rabbit polyclonal IgG anti-Lyn, anti-Aurora A, and anti-Aurora B were obtained from Santa Cruz Biotechnology, (Santa Cruz, CA); rabbit polyclonal IgG anti-p-Src, anti-p-StatS, and anti-p-Crkl were obtained from Cell Signaling (Danvers, MA). Goat anti-rabbit PE (Santa Cruz Biotechnology) was used as the secondary antibody. LYN, p-CRKL, p-SRC, p-STATS, and Aurora A and B status were monitored. All experiments were repeated at least three times. Asterisk indicates p<0.05 relative to Control (empty vector).
# (§4) Tyrosine kinase assay was performed using the Universal Tyrosine Kinase Assay Kit (GenWay Biotech, San Diego, CA) according to the manufacturer's instruction. The universal protein tyrosine kinase substrate peptide, Poly (Glu-Tyr) (4:1, 20-50 kDa) was pre-coated onto 96-well microtiter plates. Serial dilutions of prepared cell extract and 5-point standards (with known tyrosine kinase activities) were added to the plate in triplicates along with an ATP-containing kinase buffer. After incubation at 37° C. for 30 min to allow phosphorylation of tyrosine residues, the sample solution was removed and the wells washed with Washing buffer (PBS with 0.05% Tween-20) and blocked with Blocking solution. Anti-phosphotyrosine (PY20)-horse radish peroxidase (HRP) conjugate was then added to the plate. After incubation at 37° C. for 30 min, the PY20-HRP solution was replaced by HRP substrate solution (TMBZ). For colorimetric determination of PTK activity, the sample's specific absorbance at 450 nm was calculated from the standard curve.
# [7] = system: tyrosine kinase (TK) activity in K562 cells (empty vector); assay: Universal Tyrosine Kinase Assay on cell extract, K562 empty vector; type: cell-based, human; settings: relative to no-drug control, imatinib 1.2 μM, nilotinib 5 nM, dasatinib 5 nM, MK 0457 2 μM, homoharringtonine X μM
# Experimental: as §3, §4
# [8] = system: phosphorylation of CrkL and other substrates in K562 cells transfected with pMIG/35 INS bcr-abl; assay: Phosphorylation of BCR-ABL substrates, K562 cells transfected with pMIG/35 INS bcr-abl; type: cell-based, human
# Experimental: (§5) The effect of a compound on the kinase activity of the BCR-ABL is assessed by monitoring tyrosine phosphorylation profile of the cellular proteins. […] Genetically modified cells comprising recombinant bcr-abl or variant so of bcr-abl including the splice variant are grown in presence of various amounts of a compound for treating CML patients. […] Amount of phosphorylated CrkL protein can be measured by using detectably labeled anti-phospho CrkL antibody. In one embodiment, the detectable label is phycoerythrin. The signal can be detected by Flow cytometer. Alternatively, the signal can be detected by Fluorescent Microtiter plate reader.
# as §3, with “times.” for “times. Asterisk indicates p<0.05 relative to Control (empty vector).”
# [9] = system: tyrosine kinase (TK) activity in K562 cells transfected with BCR-ABL1 35INS; assay: Universal Tyrosine Kinase Assay on cell extract, K562 BCR-ABL1 35INS; type: cell-based, human
# Experimental: as §3, with “times.” for “times. Asterisk indicates p<0.05 relative to Control (empty vector).”
# as §4
# [10] = system: K562 cells transfected with pMIG/35 INS bcr-abl; assay: MTT cell proliferation/viability assay, K562 cells transfected with pMIG/35 INS bcr-abl; type: cell-based, human; settings: for IC50: read-out: IC50 (median-effect dose, MTT)
# Experimental: as §1
# [11] = system: phosphorylation of CrkL, LYN, pSRC, pSTAT5, Aurora A and B in K562 cells; assay: Phosphorylation of BCR-ABL substrates, K562 cells; type: cell-based, human
# Experimental: as §5
# as §3, with “times.” for “times. Asterisk indicates p<0.05 relative to Control (empty vector).”
# [12] = BCR-ABL1 35INS, relative to no-drug control, imatinib 1.2 μM, nilotinib 5 nM, dasatinib 5 nM, MK 0457 2 μM, homoharringtonine X μM
SMILES,Resistance to the drug caused by wild-type BCR-ABL1p210 expression [2],Effect of 35 INS BCR-ABL gene transfer on drug-induced caspase-3 activation [3],Cell death in K562 cells [5],Relative tyrosine kinase activity [6] [%],Relative tyrosine kinase activity [7] [%],"Relative tyrosine kinase activity [9, 12] [%]",IC50 ([2]; Homo sapiens) [nM],IC50 ([5]; Homo sapiens) [nM],Effect on Aurora A and B [11],other results
"Cc1ccc(NC(=O)c2ccc(CN3CCN(C)CC3)cc2)cc1Nc1nccc(-c2cccnc2)n1 [Imatinib, imatinib mesylate]",did not induce resistance,induced resistance; also recorded: increase was inhibited,induced cell death,–,–,–,–,–,–,"Primary resistance rate (failure to achieve any hematologic response) ([1]; accelerated-phase CML): 9%; Secondary resistance rate (hematologic recurrence) ([1]; accelerated-phase CML): 32%; Primary resistance rate (failure to achieve any hematologic response) ([1]; blast-phase CML): 51%; Secondary resistance rate (hematologic recurrence) ([1]; blast-phase CML): 41%; Primary resistance rate (failure to achieve any hematologic response) ([1]; chronic-phase CML): 3%; Secondary resistance rate (hematologic recurrence) ([1]; chronic-phase CML): 22%; Caspase-3 activation over time ([3]; CML K562 cells, continuous treatment): increased with time; BIM expression / induction [4]: expressed at increased levels"
Cc1cc(Nc2cc(N3CCN(C)CC3)nc(Sc3ccc(NC(=O)C4CC4)cc3)n2)n[nH]1 [MK-0457],did not induce resistance,did not affect the rate of caspase-3 activation,–,96.7,87.3,100,–,–,–,"Effect of 35 INS BCR-ABL expression on inhibition of kinases/phosphorylation by the drug [8]: no effect on inhibition; Resistance to the drug caused by 35 INS BCR-ABL expression (MTT) ([10]; K562 cells transfected with pMIG/35 INS bcr-abl): did not induce resistance; IC50 ([10]; pMIG/35 INS bcr-abl 0.01 μg DNA, K562 cells, drug 48 h): 2000 nM; IC50 ([10]; pMIG/35 INS bcr-abl 0.05 μg DNA, K562 cells, drug 48 h): 1980 nM; IC50 ([10]; pMIG/35 INS bcr-abl 0.1 μg DNA, K562 cells, drug 48 h): 1540 nM; IC50 [2]: 1790 nM; IC50 [5]: 1810 nM"
"COC(=O)C[C@](O)(CCCC(C)(C)O)C(=O)O[C@@H]1C(OC)=C[C@]23CCCN2CCc2cc4c(cc2[C@H]13)OCO4 [HHT, homoharringtonine]",–,–,–,79.2,59.8,75.4,54,63,–,"IC50 ([10]; Homo sapiens, K562, 48 h, pMIG/35 INS bcr-abl 0.01 μg DNA, K562 cells, drug 48 h): 61 nM; IC50 ([10]; Homo sapiens, K562, 48 h, pMIG/35 INS bcr-abl 0.05 μg DNA, K562 cells, drug 48 h): 49 nM; IC50 ([10]; Homo sapiens, K562, 48 h, pMIG/35 INS bcr-abl 0.1 μg DNA, K562 cells, drug 48 h): 54 nM"
"Cc1nc(Nc2ncc(C(=O)Nc3c(C)cccc3Cl)s2)cc(N2CCN(CCO)CC2)n1 [Dasatinib, dasatinib]",–,–,–,20.6,15.6,–,11,12,no effect,–
"Cc1cn(-c2cc(NC(=O)c3ccc(C)c(Nc4nccc(-c5cccnc5)n4)c3)cc(C(F)(F)F)c2)cn1 [Nilotinib, nilotinib]",did not induce resistance,induced resistance,induced cell death,33.1,23.4,–,42,42,no effect,"Phosphorylation of CrkL, LYN, pSRC and pSTAT5 [11]: inhibited phosphorylation; Relative tyrosine kinase activity [9]: 76.2%; Increase of IC50 with pMIG/35 INS bcr-abl vector [10]: 1.7 fold; IC50 ([10]; Homo sapiens, K562, 48 h): 52 nM; IC50 [10]: 54 nM and 71 nM; Relative potency in induction of apoptosis (caspase-3 activation) ([3]; K562 cells): more potent than imatinib"
